Test results from patent US6593342B1, “Pharmaceutical compositions comprising 2-quinolones” (Laboratoire L. Lafon, priority 1998, dated 2003).

Legend:
PC-3 = assay: MTT test, PC-3; format: cell-based; details: Homo sapiens, 10^−5 M, 72 hours, control = 100%, mean ± SEM, read-out: average optical density (MTT), percentage relative to control
Experimental: (§1) The influence of the compounds of formulae (I) and (Ia) on non-clonogenic cells was evaluated with the aid of the MTT calorimetric test.
(§2) The principle of the MTT test is based on the mitochondrial reduction, by the metabolically active live cells, of the yellow-colored product MTT (3-(4,5-dimethylthiazol-2-yl)-2,5-diphenyltetrazolium bromide) to a blue-colored product, formazan. The amount of formazan thus obtained is directly proportional to the amount of live cells present in the culture well(s). This amount of formazan is measured by spectrophotometry.
(§3) The cell lines are maintained as a monolayer culture at 37° C. in stoppered culture dishes containing MEM 25 MM HEPES (Minimum Essential Medium) base medium. This medium is suited to the growth of a range of various mammalian diploid or primary cells. This medium is then supplemented with:
(§4) an amount of 5% of FCS (Foetal Calf Serum) decomplemented at 56° C. for 1 hour,
(§5) 0.6 mg/ml of L-glutamine,
(§6) 200 μg/ml of streptomycin,
(§7) The 12 human cancer cell lines which were used were obtained from the American Type Culture Collection (ATCC, Rockville, Md., USA). These 12 cell lines are:
PC-3 (code ATCC: CRL-1435) which is a prostate cancer.
(§8) Experimentally: 100 μl of a cell suspension containing 20 000 to 50 000 (depending on the cell type used) cells/ml of culture medium are inoculated in 96-well flat-bottomed multi-well plates and are incubated at 37° C., under an atmosphere comprising 5% CO2 and 70% humidity. After incubation for 24 hours, the culture medium is replaced with 100 μl of fresh medium containing either the various test compounds at concentrations ranging from 10^−5 to 10^−10 M or the solvent used to dissolve the test products (control condition). After incubation for 72 hours under the above conditions, the culture medium is replaced with 100 μl of a yellowish solution of MTT dissolved at a rate of 1 mg/ml in RPMI 1640. The microplates are reincubated for 3 hours at 37° C. and are then centrifuged for 10 minutes at 400×g. The yellowish solution of MTT is removed and the blue formazan crystals formed in the cell are dissolved in 100 μl of DMSO. The microplates are then shaken for 5 minutes. The intensity of the resulting blue coloration, and thus of the conversion of the yellow product MTT into blue formazan by the cells that are still alive at the end of the experiment, is quantified by spectrophotometry using a Dynatech Immunoassay System machine at wavelengths of 570 nm and 630 nm corresponding, respectively, to the maximum absorption wavelengths of formazan and to the background noise. Software incorporated in the spectrophotometer calculates the average optical density values and the standard deviation (SD) and standard error of mean (SEM) values.
(§9) By way of example, the results of the average optical density, expressed as a percentage relative to the average optical density measured under the control condition (set equal to 100%), obtained at a concentration of 10^−5 M on the 12 abovementioned tumor cell lines are given in Table II.

HCT-15 = assay: MTT test, HCT-15; format: cell-based; details: Homo sapiens, 10^−5 M, 72 hours, control = 100%, mean ± SEM, read-out: average optical density (MTT), percentage relative to control
Experimental: as §1, §2, §3, §4, §5, §6, §7
HTC-15 (code ATCC: CCL-225) and LoVo (code ATCC: CCL-229) which are two colorectal cancers,
as §8, §9

lymphoma P 388 = assay: In vivo antitumor activity, lymphoma P 388; design: species or system mouse; details: Table IX; subcutaneous P 388 in CDF1 mice; compound 1 or 20 40 mg/kg 5/week from D5, 5 weeks; VCR 0.63 mg/kg 3/week from D5, 3 weeks
Experimental: 4.—In Vivo Antitumor Activity in Combination With a Cytotoxic Agent
The tests were carried out on models of:
in the presence or absence of cytotoxic agents such as cyclophosphamide, etoposide, doxorubicin or vincristine.
When the MTD value of a product was determined, its in vivo antitumor activity was characterized at doses of MTD/2, MTD/4 and MTD/8 on the model of mouse mammary adenocarcinoma HS-MXT and on the model of lymphoma P 388.
In all the examples presented below, irrespective of the model (mammary adenocarcinoma HS-MXT or lymphoma P 388), the control condition is represented by a batch of 9 mice to which is administered for 5 consecutive weeks and at a rate of 5 administrations (Monday, Tuesday, Wednesday, Thursday and Friday) per week a volume of 0.2 ml of physiological saline containing the solvent used to dissolve the various compounds of formulae (I) and (Ia) used.
i)—The survival rate of the mice
This survival rate was calculated in the form of a ratio T/C:
This ratio represents the average survival time of the median mouse from the batch of treated mice relative to the average survival time of the median mouse from the batch of control mice. Thus, a molecule induces a significant (P<0.05) increase in the survival of the animals when the index T/C exceeds 130%. Conversely, it has a toxic effect when this value of T/C is less than 70%.
4- to 6-week-old CDF1 mice are grafted with a piece of P 388 tumor (from a tumor bank maintained in the laboratory) subcutaneously into the right flank on day D0. In order to be under conditions close to clinical reality, we waited until the 5th day post-grafting (D5) before starting the treatment. The reason for this was that, after this period of time, the subcutaneous P 388 tumors are palpable.
Compound 1 is administered alone. The first injection of the product is carried out on the 5th day post-grafting (D5) at a rate of 5 injections per week (Monday, Tuesday, Wednesday, Thursday and Friday) for five consecutive weeks-and at a dose of 40 mg/kg.
Compound 20 is administered alone. […]

SMILES	viability at 10 µM (PC-3) [%]	viability at 10 µM (HCT-15) [%]	T/C (survival) (lymphoma P 388) [%]
COc1ccc(-c2cc3c(OC)cc(OC)cc3n(CCN(C)C)c2=O)cc1 [CRL8316, 1-[2-(Dimethylamino)ethyl]-5,7-dimethoxy-3-(4-methoxyphenyl)-1,2-dihydro-2-quinolinone]	84.8 ± 2.3	79.8 ± 2.9	–
CCN(CC)C(=O)Cn1c(=O)c(-c2ccc(OC)cc2)cc2c(OC)cc(OC)cc21 [CRL8315, N,N-Diethyl-2-[5,7-dimethoxy-3-(4-methoxy-phenyl)-2-oxo-1,2-dihydro-1-quinolinyl]acetamide]	93.6 ± 3	87.9 ± 3.3	–
CCN(CC)C(=O)CCn1c(=O)c(-c2ccc(OC)cc2)cc2c(OC)cc(OC)cc21 [CRL8283, N,N-Diethyl-3-[5,7-dimethoxy-3-(4-methoxy-phenyl)-2-oxo-1,2-dihydro-1-quinolinyl]propanamide]	92.4 ± 1.7	58.2 ± 4.3	–
COc1ccc(-c2cc3c(OC)cc(OC)cc3[nH]c2=O)cc1 [CRL8246, 5,7-Dimethoxy-3-(4-methoxyphenyl)-1,2-dihydro-2-quinolinone]	122 ± 1.7	97.2 ± 5.1	120
COc1ccc(-c2cc3c(OC)cc(OC)cc3n(CCC#N)c2=O)cc1 [CRL8247, 3-[5,7-Dimethoxy-3-(4-methoxyphenyl)-2-oxo-1,2-dihydro-1-quinolinyl]propanenitrile]	70.5 ± 4.6	87.4 ± 2.5	125
COc1ccc(-c2cc3c(OC)cc(OC)cc3n(CCc3nnn[nH]3)c2=O)cc1 [CRL8256, 1-[2-(1H-1,2,3,4-Tetrazol-5-yl)ethyl]-5,7-dimethoxy-3-(4-methoxyphenyl)-1,2-dihydro-2-quinolinone]	86 ± 2.3	73.9 ± 3.6	–
